Common to all, as to assay: biochemical
What all share (design): DiscoverX KINOMEscan scanMAX competition binding panel, single concentration, percent of control; remaining binding: dose or concentration left out as unconfirmed
Conditions in all cases: KINOMEscan binding, percent of control; read-out: Table S4_SCANMAX REPORT - related to Fig. 1 / Percent Control

Assay [1] deals with T1, ABL1(M351T)-phosphorylated (Homo sapiens, UniProt P00519, M351T).
T1 construct: phosphorylated

The target in assay [2] is T2, ABL1(T315I)-phosphorylated (Homo sapiens, UniProt P00519, T315I).
T2 construct: phosphorylated

The target of assay [3] is ANKK1 (Homo sapiens, UniProt Q8NFD2).
In assay [4] the target is AURKC (Homo sapiens, UniProt Q9UQB9).
Assay [5] has as its target T3, DCAMKL2 (Homo sapiens, UniProt Q8N568).
T3 construct: gene DCLK2

The target of assay [6] is EGFR(G719C) (Homo sapiens, UniProt P00533, G719C).
Assay [7] deals with EGFR(L747-S752del, P753S) (Homo sapiens, UniProt P00533, DEL747-752/P753S).
Assay [8] addresses IGF1R (Homo sapiens, UniProt P08069).
Assay [9] concerns the target T4, JAK2(JH1domain-catalytic) (Homo sapiens, UniProt O60674).
T4 construct: JH1domain-catalytic

The target of assay [10] is NEK6 (Homo sapiens, UniProt Q9HC98).
Assay [11] deals with T5, PCTK1 (Homo sapiens, UniProt Q00536).
T5 construct: gene CDK16

The target of assay [12] is PHKG2 (Homo sapiens, UniProt P15735).
Assay [13] addresses T6, PIP5K2C (Homo sapiens, UniProt Q8TBX8).
T6 construct: gene PIP4K2C

Assay [14] addresses SRPK1 (Homo sapiens, UniProt Q96SB4).
Assay [15] addresses SRPK3 (Homo sapiens, UniProt Q9UPE1).
In assay [16] the target is TLK2 (Homo sapiens, UniProt Q86UE8).
Assay [17] concerns the target T7, TYK2(JH2domain-pseudokinase) (Homo sapiens, UniProt P29597).
T7 construct: JH2domain-pseudokinase

The target in assay [18] is WEE2 (Homo sapiens, UniProt P0C1S8).

For one compound, remaining binding results are on record in publication PMC7486443, “Generation of Phenothiazine with Potent Anti-TLK1 Activity for Prostate Cancer Therapy” (iScience, 2020).

The structures appear in SMILES notation.

Chain of WEE2 (P0C1S8 whole entry): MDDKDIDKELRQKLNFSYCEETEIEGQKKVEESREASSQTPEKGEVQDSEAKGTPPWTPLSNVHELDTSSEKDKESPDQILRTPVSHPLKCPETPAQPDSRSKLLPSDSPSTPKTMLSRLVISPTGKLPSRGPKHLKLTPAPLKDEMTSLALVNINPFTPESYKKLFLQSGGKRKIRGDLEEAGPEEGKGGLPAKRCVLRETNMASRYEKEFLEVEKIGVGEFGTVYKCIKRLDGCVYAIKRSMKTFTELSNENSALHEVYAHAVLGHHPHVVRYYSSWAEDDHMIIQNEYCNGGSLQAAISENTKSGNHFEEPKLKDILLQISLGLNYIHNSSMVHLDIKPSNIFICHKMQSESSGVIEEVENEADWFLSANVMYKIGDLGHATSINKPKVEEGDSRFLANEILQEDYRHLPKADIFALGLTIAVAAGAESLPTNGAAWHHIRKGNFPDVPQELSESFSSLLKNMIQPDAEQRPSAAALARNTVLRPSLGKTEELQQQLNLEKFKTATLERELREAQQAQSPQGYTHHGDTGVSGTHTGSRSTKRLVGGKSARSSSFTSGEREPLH
Chain of NEK6 (Q9HC98 whole entry): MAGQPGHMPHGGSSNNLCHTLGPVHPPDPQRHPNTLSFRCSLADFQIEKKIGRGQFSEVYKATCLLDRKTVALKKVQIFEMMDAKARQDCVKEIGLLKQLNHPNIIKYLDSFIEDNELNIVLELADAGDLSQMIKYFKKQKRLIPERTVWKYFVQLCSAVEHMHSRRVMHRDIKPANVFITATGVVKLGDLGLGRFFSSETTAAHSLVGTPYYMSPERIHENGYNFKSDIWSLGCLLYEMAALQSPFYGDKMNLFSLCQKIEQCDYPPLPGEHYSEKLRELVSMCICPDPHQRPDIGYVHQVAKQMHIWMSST
Chain of SRPK3 (Q9UPE1 whole entry): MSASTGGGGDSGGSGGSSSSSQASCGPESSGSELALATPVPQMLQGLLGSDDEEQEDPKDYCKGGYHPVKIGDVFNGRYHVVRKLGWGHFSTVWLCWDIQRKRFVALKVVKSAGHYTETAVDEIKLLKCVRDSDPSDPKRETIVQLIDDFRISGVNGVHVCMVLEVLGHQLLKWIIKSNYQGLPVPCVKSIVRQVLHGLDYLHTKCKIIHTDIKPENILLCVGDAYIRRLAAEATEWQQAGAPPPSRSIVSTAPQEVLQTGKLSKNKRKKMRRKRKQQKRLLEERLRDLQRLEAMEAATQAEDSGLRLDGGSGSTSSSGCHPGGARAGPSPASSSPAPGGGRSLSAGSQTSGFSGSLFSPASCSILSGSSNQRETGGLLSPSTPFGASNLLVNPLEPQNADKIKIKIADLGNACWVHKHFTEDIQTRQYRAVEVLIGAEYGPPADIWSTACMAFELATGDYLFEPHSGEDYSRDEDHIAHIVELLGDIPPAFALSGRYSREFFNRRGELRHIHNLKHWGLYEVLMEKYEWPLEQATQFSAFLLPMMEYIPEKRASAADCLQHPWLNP
T4 sequence (O60674 whole entry): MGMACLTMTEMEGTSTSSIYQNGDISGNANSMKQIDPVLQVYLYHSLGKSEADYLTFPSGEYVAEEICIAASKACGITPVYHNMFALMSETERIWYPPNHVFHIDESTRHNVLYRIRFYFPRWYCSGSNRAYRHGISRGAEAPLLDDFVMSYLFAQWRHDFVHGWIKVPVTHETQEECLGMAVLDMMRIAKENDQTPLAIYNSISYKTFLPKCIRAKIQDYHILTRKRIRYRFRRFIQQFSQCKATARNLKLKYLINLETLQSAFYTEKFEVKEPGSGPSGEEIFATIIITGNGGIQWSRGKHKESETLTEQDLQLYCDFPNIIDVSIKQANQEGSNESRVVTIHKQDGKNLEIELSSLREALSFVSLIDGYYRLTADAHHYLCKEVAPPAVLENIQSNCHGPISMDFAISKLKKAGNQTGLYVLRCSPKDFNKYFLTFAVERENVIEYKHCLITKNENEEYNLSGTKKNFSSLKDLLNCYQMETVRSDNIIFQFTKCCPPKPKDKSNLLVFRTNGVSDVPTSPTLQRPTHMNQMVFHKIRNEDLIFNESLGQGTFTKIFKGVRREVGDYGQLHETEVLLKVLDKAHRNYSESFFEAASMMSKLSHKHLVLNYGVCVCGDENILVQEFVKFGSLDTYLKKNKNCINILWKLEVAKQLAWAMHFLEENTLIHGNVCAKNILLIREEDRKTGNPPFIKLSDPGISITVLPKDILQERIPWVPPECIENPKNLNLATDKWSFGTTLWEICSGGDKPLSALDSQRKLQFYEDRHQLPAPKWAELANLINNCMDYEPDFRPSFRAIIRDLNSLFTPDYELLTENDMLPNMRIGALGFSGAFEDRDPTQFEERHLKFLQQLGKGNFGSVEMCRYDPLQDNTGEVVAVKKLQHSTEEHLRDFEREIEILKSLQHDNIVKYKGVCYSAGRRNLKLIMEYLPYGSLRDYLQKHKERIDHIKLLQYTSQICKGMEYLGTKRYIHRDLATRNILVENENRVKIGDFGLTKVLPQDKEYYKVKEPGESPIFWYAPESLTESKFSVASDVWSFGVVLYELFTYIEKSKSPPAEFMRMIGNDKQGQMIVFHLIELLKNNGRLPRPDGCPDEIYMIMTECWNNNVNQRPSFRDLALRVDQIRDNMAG
Chain of ANKK1 (Q8NFD2 whole entry): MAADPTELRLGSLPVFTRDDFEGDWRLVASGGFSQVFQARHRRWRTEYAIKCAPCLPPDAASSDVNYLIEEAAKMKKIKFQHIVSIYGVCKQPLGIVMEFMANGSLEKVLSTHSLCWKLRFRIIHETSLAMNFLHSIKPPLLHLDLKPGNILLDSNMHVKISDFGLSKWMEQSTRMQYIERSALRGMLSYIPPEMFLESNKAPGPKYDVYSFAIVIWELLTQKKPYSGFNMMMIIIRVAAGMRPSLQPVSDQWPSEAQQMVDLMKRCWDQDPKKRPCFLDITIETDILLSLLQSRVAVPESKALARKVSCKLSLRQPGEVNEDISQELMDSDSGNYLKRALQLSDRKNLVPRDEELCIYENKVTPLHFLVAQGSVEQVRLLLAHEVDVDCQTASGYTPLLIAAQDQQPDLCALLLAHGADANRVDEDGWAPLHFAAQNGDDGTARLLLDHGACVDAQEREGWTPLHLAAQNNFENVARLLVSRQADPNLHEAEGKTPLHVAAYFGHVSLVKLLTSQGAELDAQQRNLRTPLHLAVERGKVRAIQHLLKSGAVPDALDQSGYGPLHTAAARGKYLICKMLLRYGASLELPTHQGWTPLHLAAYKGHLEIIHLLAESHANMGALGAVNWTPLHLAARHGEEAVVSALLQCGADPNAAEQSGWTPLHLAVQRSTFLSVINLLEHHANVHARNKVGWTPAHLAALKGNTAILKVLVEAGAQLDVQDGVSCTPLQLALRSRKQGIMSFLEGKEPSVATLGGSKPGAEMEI
Chain of IGF1R (P08069 whole entry): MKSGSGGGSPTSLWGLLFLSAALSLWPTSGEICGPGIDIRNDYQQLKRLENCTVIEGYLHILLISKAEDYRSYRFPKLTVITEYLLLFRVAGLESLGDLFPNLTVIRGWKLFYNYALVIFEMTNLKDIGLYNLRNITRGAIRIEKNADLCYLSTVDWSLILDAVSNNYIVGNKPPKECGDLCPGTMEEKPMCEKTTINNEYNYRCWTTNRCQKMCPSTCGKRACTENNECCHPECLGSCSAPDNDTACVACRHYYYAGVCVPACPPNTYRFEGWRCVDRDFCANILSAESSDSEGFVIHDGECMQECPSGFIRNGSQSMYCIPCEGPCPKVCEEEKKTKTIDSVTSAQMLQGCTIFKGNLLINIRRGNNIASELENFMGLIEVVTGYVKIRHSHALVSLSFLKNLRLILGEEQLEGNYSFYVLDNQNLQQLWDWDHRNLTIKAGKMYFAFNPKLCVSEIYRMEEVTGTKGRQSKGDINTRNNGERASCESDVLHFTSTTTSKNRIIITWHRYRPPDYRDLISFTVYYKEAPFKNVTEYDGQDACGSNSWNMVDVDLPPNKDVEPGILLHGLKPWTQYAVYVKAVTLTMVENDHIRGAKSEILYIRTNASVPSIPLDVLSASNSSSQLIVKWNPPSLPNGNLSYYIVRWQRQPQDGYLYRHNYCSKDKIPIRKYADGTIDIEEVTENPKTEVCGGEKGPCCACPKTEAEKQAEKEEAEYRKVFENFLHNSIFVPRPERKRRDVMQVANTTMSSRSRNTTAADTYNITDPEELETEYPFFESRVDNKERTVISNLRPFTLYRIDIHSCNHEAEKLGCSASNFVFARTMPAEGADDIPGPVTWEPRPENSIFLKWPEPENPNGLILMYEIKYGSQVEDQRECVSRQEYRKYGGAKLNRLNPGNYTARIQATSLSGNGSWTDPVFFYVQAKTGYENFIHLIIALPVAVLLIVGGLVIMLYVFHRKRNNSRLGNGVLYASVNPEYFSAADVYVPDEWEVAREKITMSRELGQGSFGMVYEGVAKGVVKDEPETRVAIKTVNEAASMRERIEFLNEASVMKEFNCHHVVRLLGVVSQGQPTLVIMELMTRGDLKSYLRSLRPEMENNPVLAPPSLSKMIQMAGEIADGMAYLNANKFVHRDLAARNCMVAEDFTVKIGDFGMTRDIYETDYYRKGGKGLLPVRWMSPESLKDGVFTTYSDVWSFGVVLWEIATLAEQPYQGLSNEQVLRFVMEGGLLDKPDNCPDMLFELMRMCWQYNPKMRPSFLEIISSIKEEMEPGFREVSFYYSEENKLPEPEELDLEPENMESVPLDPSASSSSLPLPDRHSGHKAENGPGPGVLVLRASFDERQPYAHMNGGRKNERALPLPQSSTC
Chain of AURKC (Q9UQB9 whole entry): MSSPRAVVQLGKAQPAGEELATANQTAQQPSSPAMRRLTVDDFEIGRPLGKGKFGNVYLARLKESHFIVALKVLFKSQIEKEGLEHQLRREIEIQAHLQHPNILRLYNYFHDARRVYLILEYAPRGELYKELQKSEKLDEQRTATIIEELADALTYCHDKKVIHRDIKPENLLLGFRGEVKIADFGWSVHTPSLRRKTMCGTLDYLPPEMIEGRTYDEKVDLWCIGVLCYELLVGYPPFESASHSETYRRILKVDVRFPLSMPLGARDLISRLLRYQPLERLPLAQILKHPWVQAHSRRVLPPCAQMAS

For `c1ccc2c(c1)Sc1ccccc1N2CCN1CCOCC1` [J54], the remaining binding worked out at 100% in assay [1]; 93% in assay [2]; 100% in assay [3]; 100% in assay [4]; 100% in assay [5]; 100% in [6]. The remaining binding in [7] amounted to 92%; in assay [8] it was 56%; in assay [9], 95%; in assay [10], 92%; in assay [11], 99%; in assay [12] it was 94%. For the same compound, the remaining binding in assay [13] is 100%; in assay [14] it was 100%; in assay [15] it was 100%; in assay [16], 23%; in [17], 100%; in assay [18], 100%.
